In US4748179A, “β-carbolin-3-carboxylic acid derivatives and their use as benzodiazepine antagonists” (Schering Aktiengesellschaft, priority 1983, dated 1988):

What was measured:
benzodiazepine receptors [1] = assay: Displacement of 3H-flunitrazepam specific binding in vitro, rat forebrain membrane suspension; settings: 3H-flunitrazepam 1.0 nM, 0° C., pH 7.1
benzodiazepine receptors [2] = assay: In vivo displacement of 3H-flunitrazepam binding to benzodiazepine receptors in living brain; settings: mice, usually subcutaneously, 3H-flunitrazepam i.v. 15 minutes later
Text: The pharmaceutical properties of the compounds of the invention have been investigated by determining their capability for displacing radioactively labelled flunitrazepam from such benzodiazepine receptors, and their ability to antagonize pentazole induced convulsions.
The displacement activity of the compounds of the invention has been determined by determining the IC50 value and ED50 value.
The ED50 value represents the dose (mg/kg) of a test substance which causes the specific binding of flunitrazepam to benzodiazepine receptors in a living brain to be reduced to 50% of the control value. Such an in vivo test is carried out as follows:
Groups of mice are injected with the test substance at different doses and usually subcutaneously. 15 minutes later ^3 H-flunitrazepam is giving intravenously to the mice and after further 20 minutes the mice are killed, […]. The ED50 value is determined from dose-response curves.

[3] = system: pentazole-induced convulsions; assay: Antagonism of pentazole-induced convulsions; assay type: in vivo; settings: ip; read-out: Antagonism of pentazole-induced convulsions ED50 i.p.
Text: The antagonism of pentazole induced convulsions was investigated.
The test has been performed according to known test models in pharmacology,e.g., as described in R. A. Turner, Screening Methods in Pharmacology, Academic Press, N.Y. and London 1965, esp. p. 164 ff. or Woodbury, P. M., Perry, I. K. and Schmidt, R. P. Antiepileptic Drugs, Raven Press, N.Y. 1972.

[4] = Inhibition of motor coordination (ataxia); assay type: in vivo; settings: mouse, sc, mice, 30 minutes after subcutaneous administration, read-out: Inhibition of/Ataxia (motor-incoordination)
Procedure: The inhibition of motor coordination in mice was also studied 30 minutes after subcutaneous administration in accordance with a method described in the litterature (Buus Lassen et al., Acta Pharmacol. et Toxicol., 1971, 39, 1-16).

[5] = system: lorazepam-induced ataxia in NMRI mice; assay: Antagonism of benzodiazepine (lorazepam) action in motor incoordination, rotating rod; assay type: in vivo
Procedure: Antagonism of benzodiazepine action in motor incoordination.
NMRI mice (20-25 g) were placed on a horizontal wooden rod (diameter 4.3 cm), rotating at a rate of 6 min^-1, 8 cm above the bench. […] The ability of the compounds of this invention to antagonize the effect of benzodiazepine in motor coordination has been determined by determining the ED50 -value. […] The test was performed as follows:
At least 3 groups of mice (8 mice in each group) were injected intraperitoneally with 2 mg/kg lorazepam. 15 minutes later each group of mice were injected with different doses of the test compounds and after further 15 minutes the test for ataxia was performed. Based on the data obtained the ED50 -value was calculated.

[6] = system: pentazole-induced seizures in diazepam-treated NMRI mice; assay: Antagonism of benzodiazepine (diazepam) action on pentazole-induced seizures; assay type: in vivo; settings: i.p., against 5 mg/kg diazepam i.p.; pentazole 150 mg/kg s.c.; clonic seizures in 50% of animals
Procedure: Antagonism of Benzodiazepine action on pentazol-induced seizures in NMRI mice (20-25 g).
15 minutes later each group of mice were injected intraperitoneally with different doses of the test compounds and after further 15 minutes the mice received 150 mg/kg pentazol, administered subcutaneously. Clonic seizures within the next 30 minutes were noted. Based on the data obtained the ED50 value was calculated.

Row | Structure (SMILES) | 3H-flunitrazepam binding in vitro IC50 (benzodiazepine receptors [1]) [ng/mL] | 3H-flunitrazepam binding in vivo ED50 (benzodiazepine receptors [2]) [mg/kg] | ED50 [3] [mg/kg] | ED50 at 0.5 h [4] [mg/kg] | induction of ataxia (more than three falls from the rod within 2 min) ([5]; 2 mg/kg i.p. 30 min before test) | ED50, antagonism of benzodiazepine action on pentazole-induced seizures [6] [mg/kg] | ED50, antagonism of benzodiazepine action in motor incoordination ([5]; against 2 mg/kg lorazepam i.p., ataxia in 50% of animals, compound 15 minutes after lorazepam) [mg/kg]
1 | CN1C(=O)CN=C(c2ccccc2)c2cc(Cl)ccc21 [Diazepam, reference compound] | 3 | 1.5 | 3 | 3 | – | – | –
2 | CCOC(=O)c1ncc2[nH]c3cccc(OC)c3c2c1CC [CH3, CH3 CH2, 4-Ethyl-5-methoxy-β-carboline-3-carboxylic acid ethylester] | 1.4 | 3.0 | > 100 | > 100 | – | – | –
3 | O=C1Nc2ccc(Cl)cc2C(c2ccccc2Cl)=NC1O (centres unmarked) [Lorazepam, reference compound] | 1 | 0.2 | 0.1 | 0.3 | induced ataxia in all animals | – | –
4 | CCOC(=O)c1ncc2[nH]c3cccc(OC(C)C)c3c2c1C [(CH3)2 CH, CH3, 5-isopropoxy-4-methyl-β-carboline-3-carboxylic acid ethylester] | 0.6 | 0.3 | > 100 | > 100 | – | 0.7 | 1.0
5 | CCOC(=O)c1cc2c(cn1)[nH]c1cccc(OC(C)C)c12 [(CH3)2 CH, H, 5-Isopropoxy-β-carboline-3-carboxylic acid ethylester] | 0.4 | 6.4 | > 100 | > 100 | – | – | –
